Measured values published in patent US20070149481A1, “N,n-bridged, nitrogen-substituted carbacyclic indolocarbazoles as protein kinase inhibitors” (priority 2002, published 2007).
Values joined by “and” are separate entries in the source; they are usually repeats but may differ in a detail not shown here. Identical values can stand only once.

Columns and labels:
[1] = molecular target: T1, PKA (catalytic subunit, bovine heart) (Bos taurus, UniProt P00517); assay: Protein Kinase A inhibition assay (PKA); format: biochemical; details: 10 μM compound
T1 construct: PKA (catalytic subunit, bovine heart, Calbiochem 539486); purchased Calbiochem 539486; host or cells: bovine heart (tissue-derived)
Method: (§1) The ERK2 kinase activity assay utilizes a radioactivity-based format in a 96-well PCR plate with radioactive readout. The ERK2 activity was assayed in a 25 μL assay mixture containing 25 mM HEPES (pH 7.0), 250 μM ATP, 1 mM MgCl2, 1 mM DTT, 2% DMSO, 150 ng/mL Myelin Basic Protein (MBP, Sigma M-1891), and 13.6 ng/mL His tagged ERK2 (specific activity=38.1 nmol/min*mg). Compounds were screened for inhibition of the ERK2 kinase activity at a concentration of 10 μM. The kinase reaction was allowed to proceed at 37° C. for 30 minutes, then reaction was stopped by the addition of 5 μl of 0.5M EDTA (pH 8). 15 μL of each solution were then spotted onto the corresponding square of a filtermat (8×12 glassfibre mat 90×120 mm, PE-Wallac 1450-421). The filtermat was allowed to dry and washed once with 10% TCA, 2% PPA, 500 mM NaCl each for 30 minutes at rt. Two further washings in 10% TCA and 2% PPA for 30 minutes were performed, then a final 30 minute wash in 99% EtOH at rt was done and the filtermat was air dried. The dry filtermat was then placed in a sample bag with a Meltilex sheet (Melt-on scintillator sheets 73×109 mm, PE-Wallac 1450-441 for filtermat A) over the filtermat. The bag was trimmed to fit into the microplate heatsealer (PE-Wallac 1495-021). The heatsealer is used to melt the Meltilex on the filtermat. The bag containing the filtermat and the melted Meltilex was then placed into a filter cassette and counted using the Microbeta Jet Scintillation and Luminescence Counter PE-Wallac 1450.
The PKA kinase activity assay utilizes a radioactivity-based format in a 96-well PCR plate with radioactive readout. The PKA activity was assayed in a 25 μL assay mixture containing 25 mM HEPES (pH 7.0), 250 μM ATP, 10 mM MgCl2, 1 mM DTT, 1 mM EDTA (pH 8). 2% DMSO. 250 ng/mL Histone H2B (Roche 223 514), and 2 ng/mL PKA (catalytic subunit, bovine heart, Calbiochem 539486, specific activity=1170 pmol/min*μg). Compounds were screened for inhibition of the PKA kinase activity at a concentration of 10 μM. The kinase reaction was allowed to proceed at 37° C. for 30 minutes, then the reaction was stopped by addition of 5 μL of 0.5M EDTA (pH 8). The remainder of the protocol is identical to the one reported for ERK2.

[2] = molecular target: His tagged ERK2 (Homo sapiens, UniProt P28482); assay: Extracellular signal Regulated Kinase 2 inhibition assay (ERK2), radioactive filtermat format; format: biochemical; details: 10 μM compound
Chain of His tagged ERK2 (P28482 whole entry): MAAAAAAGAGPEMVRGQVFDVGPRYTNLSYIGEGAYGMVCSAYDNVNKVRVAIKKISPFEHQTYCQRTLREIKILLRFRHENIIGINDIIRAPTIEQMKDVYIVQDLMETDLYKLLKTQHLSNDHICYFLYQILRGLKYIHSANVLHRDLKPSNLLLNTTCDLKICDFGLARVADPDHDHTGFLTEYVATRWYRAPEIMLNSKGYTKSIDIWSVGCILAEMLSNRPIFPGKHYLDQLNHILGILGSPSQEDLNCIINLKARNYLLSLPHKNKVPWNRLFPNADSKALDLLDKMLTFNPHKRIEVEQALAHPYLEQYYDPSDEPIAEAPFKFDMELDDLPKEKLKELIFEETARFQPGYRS
Method: as §1

[3] = molecular target: T2, GSK3β (Homo sapiens, UniProt P49841); assay: Glycogen Synthase Kinase 3β inhibition assay (GSK3β); format: biochemical; details: 10 μM compound
T2 construct: purchased Upstate Discovery
T2 sequence (P49841 whole entry, species assumed): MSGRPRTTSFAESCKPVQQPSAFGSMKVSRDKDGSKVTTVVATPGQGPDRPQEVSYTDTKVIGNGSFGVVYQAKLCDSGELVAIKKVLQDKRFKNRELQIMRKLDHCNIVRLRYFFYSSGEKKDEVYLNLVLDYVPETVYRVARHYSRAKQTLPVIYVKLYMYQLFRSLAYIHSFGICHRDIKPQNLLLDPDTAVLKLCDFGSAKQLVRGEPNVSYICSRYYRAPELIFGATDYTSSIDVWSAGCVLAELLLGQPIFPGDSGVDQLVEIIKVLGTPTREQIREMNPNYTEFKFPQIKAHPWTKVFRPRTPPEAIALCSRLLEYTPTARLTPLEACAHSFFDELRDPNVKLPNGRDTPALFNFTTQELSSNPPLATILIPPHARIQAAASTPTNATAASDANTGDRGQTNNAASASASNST
Method: The GSK3β kinase activity assay utilizes a radioactivity-based format in a 96-well PCR plate with radioactive readout. The GSK3 β activity was assayed in a 25 μL assay mixture containing 8 mM HEPES (pH 7.0), 250 μM ATP, 0.2 mM EDTA (pH 8), 2% DMSO, 250 ng/mL Myelin Basic Protein (MBP, Sigma M-1891), and 12 ng/mL GSK3β (Upstate Discovery, specific activity=607 nmol/min*GS2 peptide, concentration of 6.05 mg/mL). Compounds were screened for inhibition of the GSK3β kinase activity at a concentration of 10 μM. The kinase reaction was allowed to proceed at 37° C. for 30 minutes, then the reaction was stopped by addition of 5 μL of 0.5M EDTA (pH 8).

[4] = system: PKC (rat brain); assay: Protein Kinase C inhibition assay (PKC); format: biochemical; details: 10 μM compound
Method: as §1
The PKC kinase activity assay utilizes a radioactivity-based format in a 96-well PCR plate with radioactive readout. The PKC activity was assayed in a 25 μL assay mixture containing 25 mM HEPES (pH 7.0), 250 μM ATP, 10 mM MgCl2, 1 mM DTT, 1 mM EDTA (pH 8), 2 mM CaCl2, 2% DMSO, 250 ng/mL Histone H1 (Roche 1 004 875), and 165 ng/mL PKC (rat brain, Calbiochem 539494, specific activity=1600 nmol/min*mg). Compounds were screened for inhibition of the PKC kinase activity at a concentration of 10 μM. The kinase reaction was allowed to proceed at 37° C. for 30 minutes, then the reaction was stopped by addition of 5 μL of 0.5M EDTA (pH 8). The remainder of the protocol is identical to the one reported for ERK2.

[5] = Solubility of free base NAD0241 and its hydrochloride salt in 99/1 water/DMSO; format: physicochemical; details: 18 hours equilibration at room temperature, duplicate experiments
Method: Stock solutions of NAD0241 (100 mM) and of its hydrochloride salt ([…]) in DMSO (UV-grade) were prepared freshly before the experiment and further diluted to a final concentration of 10 mM. These stock solutions in 100% DMSO were diluted with water (UV grade) to provide five 99/1 water/DMSO samples with varying concentrations of the compound (1000, 500, 100, 50 and 10 μM).
Each sample was thoroughly mixed by rigorous vortexing (30 seconds) followed by equilibration for 18 hours at room temperature. A […] for each sample was transferred into 1.5 mL polypropylene tubes and centrifuged for 30 minutes at room temperature at 16000 g in a fixed angle tabletop centrifuge (Heraeus Biofuge pico equipped with #3325 rotor). The supernatant was pipetted into a quartz glass cuvette and UV-absorption (322 nm) was measured in a UV spectrophotometer (Varian Cary 50). Each experiment was run in duplicate.

| % Inhibition PKA [1] [%] | % Inhibition ERK2 [2] [%] | % Inhibition GSK3β [3] [%] | % Inhibition PKC [4] [%] | inhibition at 10 µM [1] [%] | inhibition at 10 µM [2] [%] | inhibition at 10 µM [3] [%] | solubility limit in water containing 1% DMSO [5] | Structure (SMILES) |
| --- | --- | --- | --- | --- | --- | --- | --- | --- |
| 19.81 | 35.09 | 80.46 | 53.92 |  |  |  |  | NC1(C(=O)NCCO)CC2CC1n1c3ccccc3c3c4c(c5c6ccccc6n2c5c31)C(=O)N(CCO)C4=O (stereo not drawn) [Compound 37] |
| 86.43 | 72.93 | 95.80 | 83.88 |  |  |  |  | CCNC(=O)C1(N)CC2CC1n1c3ccccc3c3c4c(c5c6ccccc6n2c5c31)C(=O)NC4=O (stereo not drawn) [Compound 41] |
|  |  |  |  |  |  |  | 170 mgL^−1 and 214 mgL^−1 | Cl.NC(=O)C1(N)CC2CC1n1c3ccccc3c3c4c(c5c6ccccc6n2c5c31)C(=O)NC4=O (stereo not drawn) [NAD0241-hydrochloride salt] |

The remaining lines, values behind:

| Structure (SMILES) | % Inhibition PKA [1] [%] | % Inhibition ERK2 [2] [%] | % Inhibition GSK3β [3] [%] | % Inhibition PKC [4] [%] | inhibition at 10 µM [1] [%] | inhibition at 10 µM [2] [%] | inhibition at 10 µM [3] [%] | solubility limit in water containing 1% DMSO [5] |
| --- | --- | --- | --- | --- | --- | --- | --- | --- |
| N#CC1(NC(=O)C(F)(F)F)CC2CC1n1c3ccccc3c3c4c(c5c6ccccc6n2c5c31)C(=O)NC4=O (stereo not drawn) [Compound 32] | 23.81 | 44.03 | 72.20 | 49.33 |  |  |  |  |
| CCOC(=O)[C@]1(N)CC2CC1n1c3ccccc3c3c4c(c5c6ccccc6n2c5c31)C(=O)N(Cc1ccc(OC)cc1)C4=O (stereo partly drawn) [Compound 35] |  |  |  | 28.47 | < 10 | 63.8 | < 10 |  |
| COc1ccc(CN2C(=O)c3c(c4c5ccccc5n5c4c4c3c3ccccc3n4C3CC5C(N)(C(=O)O)C3)C2=O)cc1 (stereo not drawn) [Compound 36] | 21.80 | 73.44 | 82.71 | 65.10 |  |  |  |  |
